# Experimental data published in US9725445B2, “Cycloalkyl nitrile pyrazolo pyridones as Janus kinase inhibitors” (Merck Sharp & Dohme Corp., priority 2013, dated 2017).
# Target: JAK1 (Homo sapiens (Human), UniProt P23458)
# Experiment: Jak biochemical HTRF assay, JAK1
# Conditions: HTRF biochemical assay, recombinant GST-tagged catalytic domain; read-out: JAK1 IC50
# Description: Jak Biochemical HTRF Assay Protocol
# The ability of compounds to inhibit the activity of JAK1, JAK2, JAK3, and Tyk2 was measured using a recombinant purified GST-tagged catalytic domain for each enzyme (Invitrogen JAK1 #M4290, JAK2 #M4290, JAK3 #M4290, Tyk2 #M4290) in an HTRF format biochemical assay. […] The basic assay protocol is as follows: First, 250 nL of diluted compounds in DMSO were dispensed into the wells of a dry 384-well Black plate (Greiner #781076) using a Labcyte Echo 555 acoustic dispenser. Subsequent reagent additions employed an Agilent Bravo. […] After equilibration, 2 μL of 10×ATP in 1× assay buffer was added to initiate the kinase reaction and the plates were shaken and then incubated at room temperature for 120 minutes. […] Plates were shaken and centrifuged and then incubated 60 minutes at room temperature and then read on a Perkin Elmer Envision (λex=337 nm, λem=665 and 615 nm, TRF delay time=20 μs). HTRF signal=10,000*665 nm reading/615 nm reading. After normalization to untreated controls, the percent inhibition of the HTRF signal at each compound concentration was calculated. The plot of percent inhibition versus the log of compound concentration was fit with a 4-parameter dose response equation to calculate IC50 values.
# Final Reaction Conditions were:
# Examples of the instant invention were evaluated in JAK1 and JAK2 in vitro binding assays.
# Chain of JAK1 (P23458 875-1153): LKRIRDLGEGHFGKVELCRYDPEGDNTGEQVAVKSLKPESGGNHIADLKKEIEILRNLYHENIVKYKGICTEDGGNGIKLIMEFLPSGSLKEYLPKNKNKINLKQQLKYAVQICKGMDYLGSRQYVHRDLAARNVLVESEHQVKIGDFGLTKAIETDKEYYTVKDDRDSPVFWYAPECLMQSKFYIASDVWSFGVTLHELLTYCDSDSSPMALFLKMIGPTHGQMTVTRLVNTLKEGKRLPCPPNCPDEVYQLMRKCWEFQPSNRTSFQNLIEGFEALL
row,Structure (SMILES),IC50 [nM]
1,"N#C[C@@H]1C[C@@H](O)CC[C@H]1n1nc(Nc2ccc(C(F)(F)F)cc2)c2c(=O)[nH]ccc21 [Example 3-89, (1R,2R,5S)-5-hydroxy-2-(4-oxo-3-((4-(trifluoromethyl)phenyl)amino)-4,5-dihydro-1H-pyrazolo[4,3-c]pyridin-1-yl)cyclohexanecarbonitrile]",9.8
2,"CC1c2cc(Nc3nn([C@H]4CCCC[C@@H]4C#N)c4cc[nH]c(=O)c34)ccc2S(=O)(=O)N1CC(F)(F)F (single isomer, unassigned) [Example 3-129, (1S,2S)-2-(3-(((R or S)-3-methyl-1,1-dioxido-2-(2,2,2-trifluoroethyl)-2,3-dihydrobenzo[d]isothiazol-5-yl)amino)-4-oxo-4,5-dihydro-1H-pyrazolo[4,3-c]pyridin-1-yl)cyclohexanecarbonitrile]",1.1
3,"C[C@H](N[C@H]1CC[C@H](n2nc(Nc3ccc(C(F)(F)F)cc3)c3c(=O)[nH]ccc32)[C@@H](C#N)C1)C1CC1 [Example 5-12, (1S,2S,5S)-5-(((S)-1-cyclopropylethyl)amino)-2-(4-oxo-3-((4-(trifluoromethyl)phenyl)amino)-4,5-dihydro-1H-pyrazolo[4,3-c]pyridin-1-yl)cyclohexanecarbonitrile]",1.2
4,"CC(C)(C)[S@+]([O-])N[C@H](c1ccc(Nc2nn([C@H]3CCCC[C@@H]3C#N)c3cc[nH]c(=O)c23)cc1)C(F)(F)F [Example 3-56, N-{(1R)-1-[4-({1-[(1S,2S)-2-cyanocyclohexyl]-4-oxo-4,5-dihydro-1H-pyrazolo[4,3-c]pyridin-3-yl}amino)phenyl]-2,2,2-trifluoroethyl}-2-methylpropane-2-sulfinamide]",0.31
5,"CC1NCc2cc(Nc3nn([C@H]4CCCC[C@@H]4C#N)c4cc[nH]c(=O)c34)ccc21 (single isomer, unassigned) [Example 12-4, (1S,2S)-2-(3-{[(1S or 1R)-1-methyl-2,3-dihydro-1H-isoindol-5-yl]amino}-4-oxo-4,5-dihydro-1H-pyrazolo[4,3-c]pyridin-1-yl)cyclohexanecarbonitrile]",0.58
6,"CC(C)(C)N1Cc2cc(Nc3nn([C@H]4CCCCC[C@H]4C#N)c4cc[nH]c(=O)c34)ccc2S1(=O)=O (single isomer, unassigned) [Example 3-178, (1R,2S or 1S,2R)-2-{3-[(2-tert-butyl-1,1-dioxido-2,3-dihydro-1,2-benzisothiazol-5-yl)amino]-4-oxo-4,5-dihydro-1H-pyrazolo[4,3-c]pyridin-1-yl}cycloheptanecarbonitrile]",0.84
7,"CC1NCc2cc(Nc3nn([C@H]4CCCC[C@@H]4C#N)c4cc[nH]c(=O)c34)ccc21 (mixture of isomers) [Example 12-3, (1S,2S)-2-(3-{[(1S and 1R)-1-methyl-2,3-dihydro-1H-isoindol-5-yl]amino}-4-oxo-4,5-dihydro-1H-pyrazolo[4,3-c]pyridin-1-yl)cyclohexanecarbonitrile]",0.81
8,"N#C[C@@H]1CCCC[C@H]1n1nc(Nc2cccc(CNC(=O)c3cnco3)c2)c2c(=O)[nH]ccc21 [Example 3-13, N-[3-({1-[(1R,2R)-2-cyanocyclohexyl]-4-oxo-4,5-dihydro-1H-pyrazolo[4,3-c]pyridin-3-yl}amino)benzyl]-1,3-oxazole-5-carboxamide]",14
9,"CC(C)(C)N1Cc2cc(Nc3nn([C@@H]4CCCCC[C@@H]4C#N)c4cc[nH]c(=O)c34)ccc2S1(=O)=O (single isomer, unassigned) [Example 3-179, (1S,2R or 1R,2S)-2-{3-[(2-tert-butyl-1,1-dioxido-2,3-dihydro-1,2-benzisothiazol-5-yl)amino]-4-oxo-4,5-dihydro-1H-pyrazolo[4,3-c]pyridin-1-yl}cycloheptanecarbonitrile]",0.46
10,"CC(C)OC(=O)C(C)(C)C(O)(c1ccc(Nc2nn([C@H]3CCCC[C@@H]3C#N)c3cc[nH]c(=O)c23)cc1)C(F)(F)F (single isomer, unassigned) [Example 3-120, (R or S) Isopropyl 3-(4-((1-((1S,2S)-2-cyanocyclohexyl)-4-oxo-4,5-dihydro-1H-pyrazolo[4,3-c]pyridin-3-yl)amino)phenyl)-4,4,4-trifluoro-3-hydroxy-2,2-dimethylbutanoate]",1
11,"CN(C)C(c1ccc(Nc2nn([C@H]3CCCC[C@@H]3C#N)c3cc[nH]c(=O)c23)cc1)C(F)(F)F (single isomer, unassigned) [Example 9-4, (1S,2S)-2-(3-(4-((R or S)-1-(Dimethylamino)-2,2,2-trifluoroethyl)phenylamino)-4-oxo-4,5-dihydropyrazolo[4,3-c]pyridin-1-yl)cyclohexanecarbonitrile]",0.11
12,"N#C[C@H]1CCCC[C@@H]1n1nc(Nc2ccc(F)cc2)c2c(=O)[nH]ccc21 (racemic) [Example 2-1, (trans)-2-{3-[(4-Fluorophenyl)amino]-4-oxo-4,5-dihydro-1H-pyrazolo[4,3-c]pyridin-1-yl}cyclohexanecarbonitrile]",0.56
13,"CC(C)(C)S(=O)(=O)c1ccc(Nc2nn([C@H]3CCCC[C@@H]3C#N)c3cc[nH]c(=O)c23)cc1 [Example 3-143, (1S,2S)-2-(3-{[4-(tert-butylsulfonyl)phenyl]amino}-4-oxo-4,5-dihydro-1H-pyrazolo[4,3-c]pyridin-1-yl)cyclohexanecarbonitrile]",0.12
14,CC(C)(C)[S@@+]([O-])N[C@@H](c1ccc(Nc2nn([C@H]3CCCC[C@@H]3C#N)c3cc[nH]c(=O)c23)cc1)C(F)(F)F (stereo in doubt) [Example 3-55],0.52
15,"N#C[C@@H]1CCCC[C@@H]1n1nc(Nc2ccc(F)cc2)c2c(=O)[nH]ccc21 (racemic) [Example 1-1, (cis)-2-{3-[(4-Fluorophenyl)amino]-4-oxo-4,5-dihydro-1H-pyrazolo[4,3-c]pyridin-1-yl}cyclohexanecarbonitrile]",2.5
16,"CC(C)(CO)CN1Cc2cc(Nc3nn([C@H]4CCCC[C@@H]4C#N)c4cc[nH]c(=O)c34)ccc2S1(=O)=O [Example 3-82, (1S,2S)-2-(3-{[2-(3-hydroxy-2,2-dimethylpropyl)-1,1-dioxido-2,3-dihydro-1,2-benzisothiazol-5-yl]amino}-4-oxo-4,5-dihydro-1H-pyrazolo[4,3-c]pyridin-1-yl)cyclohexanecarbonitrile]",0.11

# Continued, values first:
row,IC50 [nM],Structure (SMILES)
1,0.46,"Cc1cc(Nc2nn([C@H]3CCCC[C@@H]3C#N)c3cc[nH]c(=O)c23)ccc1C(C(C)C)n1nccn1 (single isomer, unassigned) [Example 15-36, (1S,2S)-2-[3-({3-methyl-4-[(1R or 1S)-2-methyl-1-(2H-1,2,3-triazol-2-yl)propyl]phenyl}amino)-4-oxo-4,5-dihydro-1H-pyrazolo[4,3-c]pyridin-1-yl]cyclohexanecarbonitrile]"
2,0.069,"N#C[C@H]1CCC[C@@H]1n1nc(Nc2ccc(C3(C(F)(F)F)CCCCN3)cc2)c2c(=O)[nH]ccc21 (single isomer, unassigned) [Example 15-71, (1S,2S)-2-[4-oxo-3-({4-[(2S or 2R)-2-(trifluoromethyl)piperidin-2-yl]phenyl}amino)-4,5-dihydro-1H-pyrazolo[4,3-c]pyridin-1-yl]cyclopentanecarbonitrile]"
3,0.39,"CC(c1ccc(Nc2nn([C@H]3CCCC[C@@H]3C#N)c3cc[nH]c(=O)c23)cc1)n1nccn1 (single isomer, unassigned) [Example 15-21, (1S,2S)-2-[4-oxo-3-({4-[(1S or 1R)-1-(2H-1,2,3-triazol-2-yl)ethyl]phenyl}amino)-4,5-dihydro-1H-pyrazolo[4,3-c]pyridin-1-yl]cyclohexanecarbonitrile]"
4,0.25,"CC(C)C(c1ccc(Nc2nn([C@H]3CCCC[C@@H]3C#N)c3cc[nH]c(=O)c23)cc1)n1nccn1 (single isomer, unassigned) [Example 15-31, (1S,2S)-2-[3-({4-[(1R or 1S)-2-methyl-1-(2H-1,2,3-triazol-2-yl)propyl]phenyl}amino)-4-oxo-4,5-dihydro-1H-pyrazolo[4,3-c]pyridin-1-yl]cyclohexanecarbonitrile]"
5,0.48,"CC(c1ccc(Nc2nn([C@H]3CCCC[C@@H]3C#N)c3cc[nH]c(=O)c23)cc1)n1nccn1 (single isomer, unassigned) [Example 15-22, (1S,2S)-2-[4-oxo-3-({4-[(1R or 1S)-1-(2H-1,2,3-triazol-2-yl)ethyl]phenyl}amino)-4,5-dihydro-1H-pyrazolo[4,3-c]pyridin-1-yl]cyclohexanecarbonitrile]"
6,0.21,"CC(c1ccc(Nc2nn([C@H]3CCCC[C@@H]3C#N)c3cc[nH]c(=O)c23)cc1)n1ccnn1 (single isomer, unassigned) [Example 15-41, (1S,2S)-2-[4-oxo-3-({4-[(1R or 1S)-1-(1H-1,2,3-triazol-1-yl)ethyl]phenyl}amino)-4,5-dihydro-1H-pyrazolo[4,3-c]pyridin-1-yl]cyclohexanecarbonitrile]"
7,0.42,"N#C[C@@H]1CCCCC[C@H]1n1nc(Nc2ccc3c(c2)CN(C(=O)N2CCCCC2)C3)c2c(=O)[nH]ccc21 (single isomer, unassigned) [Example 15-53, (1R,2R or 1S,2S)-2-(4-oxo-3-{[2-(piperidin-1-ylcarbonyl)-2,3-dihydro-1H-isoindol-5-yl]amino}-4,5-dihydro-1H-pyrazolo[4,3-c]pyridin-1-yl)cycloheptanecarbonitrile]"
